Assay results published in PMC10892142, “Synthesis and In Vitro Antitumor Activity Evaluation of Gefitinib-1,2,3-Triazole Derivatives” (Molecules, 2024).

Experiments:
NCI-H1437 cells = test: CCK-8 assay, NCI-H1437 cells; format: cell-based; settings: Homo sapiens, NCI-H1437; CCK-8, 48 h, mean ± SD, n = 3
Procedure: (§1) Next, cell viability was determined according to the instructions of the CCK-8 assay. Then, 10 μL CCK-8 solution was added to each well of the plate and incubated for 1–4 h in the incubator. […] The percentage of viable cells was measured using the following formula where three independent experiments were performed: [(A450sample − A450blank)/(A450control − A450blank)] × 100%.

H1299 cells [1] = test: Annexin V-EGFP/PI flow cytometry for cell apoptosis; format: cell-based, human; settings: 48 h
Procedure: H1299 cells were seeded in a 6-well plate at a density of 1 × 10^5 cells/well and incubated for 24 h. The following day, the medium was replaced with fresh medium containing 4b or 4c (2, 4 and 8 μM) and cells were incubated for an additional 48 h. Cell apoptosis was detected using Annexin V-EGFP/PI apoptosis detection kit (Beyotime Biotechnology, Shanghai, China) by flow cytometry. Subsequently, 5 μL of […] Annexin V and 10 μL of PI was added to the cell suspension, gently vortexed and incubated at room temperature in the dark for 20 min. Then, single-cell suspension was prepared followed by flow cytometry (BD Accuri™ C6 Plus, BD Biosciences, Franklin Lake, NJ, USA).

H1299 cells [2] = test: Transwell migration assay; format: cell-based, human; settings: H1299, 2, 4 and 8 μM, 24 h, vs normal control
Procedure: Transwell assay was used to determine the migration ability of H1299 cells. Cells were starved in serum-free RPMI 1640 medium for 24 h, then detached and resuspended in serum-free RPMI 1640 medium. 5 × 10^5 cells/mL were inoculated into the upper chamber of a 24-well Transwell plate (Corning Inc., Corning, NY, USA), with a volume of 100 μL per well. Then, 100 μL serum-free medium containing 4b or 4c (2, 4 and 8 μM) was added to the upper chamber and the lower chamber was filled with 700 μL medium containing 20% FBS. After incubation for 24 h, H1299 cells on the upper membrane of the transwell were wiped off. The migrated cells were treated with 4% paraformaldehyde for 20 min, stained with 0.1% crystal violet for 20 min and washed three times with PBS. The number of H1299 cells that migrated to the underside of the membrane was counted under the inverted fluorescence microscope. Three randomly selected areas from each transwell were photographed and calculated using Image J.

lung cancer cells = test: CCK-8 assay, lung cancer cells (line not specified); format: cell-based; settings: read-out: inhibition rate on lung cancer cells
Procedure: (§2) Three types of lung cells and L02 cells were seeded into 96-well plate at a density of 5 × 10^3 cells per well in the logarithmic growth phase and cultured at 37 °C. The cells were then treated initially with different concentrations of compounds 4a–4n (0, 2, 4, 8, 16 and 32 μM) for an additional 48 h, with three replicate wells each. Next, cell viability was determined according to the instructions of the CCK-8 assay. Then, 10 μL CCK-8 solution was added to each well of the plate and incubated for 1–4 h in the incubator. The absorbance was measured at 450 nm using a microplate reader (Bio-Tek, Winooski, VT, USA). The percentage of viable cells was measured using the following formula where three independent experiments were performed: [(A450sample − A450blank)/(A450control − A450blank)] × 100%.

L02 cells = test: CCK-8 assay, normal hepatic cells L02; format: cell-based; settings: Homo sapiens; for inhibition at 2 µM / inhibition at 4 µM / inhibition at 8 µM / inhibition at 16 µM / inhibition at 32 µM: L02, 48 h, L02 cells, read-out: Inhibition Rate %, 48 h; for IC50: normal hepatic cells L02, CCK-8, 48 h, mean ± SD, n = 3
Procedure: NCI-H1299, NCI-H1437 and L02 cells were cultured in a humidified incubator (Thermo Scientific™ Forma™ Direct Heat CO2 Incubator, Waltham, MA, USA) at 37 °C with 5% CO2 in RPMI-1640 supplemented with 10% fetal bovine serum (FBS) and 1% Penicillin Streptomycin. A549 cells were cultured in a humidified incubator at 37 °C with 5% CO2 in Ham’s F-12K supplemented with 10% FBS and 1% Penicillin Streptomycin.
as §2

NCI-H1299 cells = test: CCK-8 assay, NCI-H1299 cells; format: cell-based, human; settings: Homo sapiens, NCI-H1299; CCK-8, 48 h, mean ± SD, n = 3
Procedure: as §1

[3] = test system: Bcl-2/caspase3/PARP signaling pathway; test: Western blot, apoptosis proteins in H1299 cells; format: cell-based, human; settings: H1299, 4, 8 and 16 μM, 48 h
Procedure: (§3) Firstly, H1299 cells were treated with the different concentrations of 4b and 4c at 4, 8 and 16 μM for 48 h. Then, cells were harvested using RIPA lysate (R0010, Solarbio, Beijing, China) and centrifuged at 12,000× g rpm for 15 min at 4 °C. Following that, the concentration of total protein was measured and taken from the supernatant. Protein was separated by 12% SDS-polyacrylamide gel electrophoresis and transferred to nitrocellulose filter membrane. After blocking in 5% milk for 2 h, the membranes were incubated with a specific primary antibody at 4 °C overnight. The next day, NC membranes were incubated for 1 h at room temperature with appropriate secondary antibodies and then protein bands were visualizing by chemiluminescence detection (ECL kit, Genview, Beijing, China).

MMP9 = test: Western blot, MMP9 in H1299 cells; format: cell-based, human; settings: H1299, with increasing drug concentration
Procedure: as §3

H1299 cells [4] = test: Colony formation assay; format: cell-based, human; settings: seven days
Procedure: H1299 cells were seeded in six-well plates at a density of 500 cells per well and treated with 4b or 4c (1, 2 and 4 μM) for seven days. Then, cells were per-fixed with 4% paraformaldehyde for 30 min, stained with 0.1% crystal violet for 15 min and then washed with pure water. After destain with water, the plates were allowed to dry at room temperature overnight. Image J was used to count the number of clone formations.

H1299 cells [5] = test: Wound healing (cell scratch) assay; format: cell-based, human; settings: 24 h
Procedure: H1299 cells were seeded in a 6-well plate. When the cell confluency reached 95%, a wound line was scratched using a 200 μl pipette tip and then washed three times. Then, fresh medium containing 4b or 4c (2, 4 and 8 μM) was added and the plate was incubated at 37 °C with 5% CO2. All images were captured at 0 h and 24 h under an inverted microscope, and the quantification of scratches was analyzed using Image J (https://imagej.net/ij/, accessed on 4 January 2024).

A549 cells = test: CCK-8 assay, A549 cells; format: cell-based; settings: Homo sapiens, A549; CCK-8, 48 h, mean ± SD, n = 3
Procedure: as §1

H1299 cells [6] = test: DAPI staining for cell apoptosis; format: cell-based, human; settings: H1299, 2, 4 and 8 μM, 48 h
Procedure: H1299 (1.5 × 10^4–2 × 10^4/well) cells were seeded in 24-well plates for 24 h and then treated with 4b or 4c at the concentrations of 2, 4 and 8 μM for 48 h. The cells were fixed for 30 min at room temperature in 4% paraformaldehyde and washed three times in PBS. Finally, every well was stained with DAPI (10 μg/mL) at room temperature for 30 min and washed at least three times in PBS. The fluorescence microscope was used to observe the morphological changes of cell nuclei.

SMILES	IC50 (NCI-H1437 cells) [µM]	total apoptotic cell proportion (H1299 cells [1]; H1299, 2 μM) [%]	total apoptotic cell proportion (H1299 cells [1]; H1299, 4 μM) [%]	total apoptotic cell proportion (H1299 cells [1]; H1299, 8 μM) [%]	number of cells crossing the microporous membrane (H1299 cells [2])	inhibition at 4 µM (lung cancer cells) [%]	inhibition at 2 µM (L02 cells) [%]	inhibition at 4 µM (L02 cells) [%]	inhibition at 8 µM (L02 cells) [%]	inhibition at 16 µM (L02 cells) [%]	inhibition at 32 µM (L02 cells) [%]	IC50 (L02 cells) [µM]	IC50 (NCI-H1299 cells) [µM]	expression level of Bcl-2 protein [3]	expression level of PARP protein [3]	expression level of caspase 3 protein [3]	expression level of caspase 9 protein [3]	expression level of cleaved PARP protein [3]	expression level of cleaved caspase 3 protein [3]	MMP9 protein expression (MMP9)	further results
COc1cc2ncnc(Nc3cccc(-c4cn(Cc5cccc(F)c5)nn4)c3)c2cc1OCCCN1CCOCC1 [Compound 4c, N-(3-(1-(3-Fluorobenzyl)-1H-1,2,3-triazol-4-yl)phenyl)-7-methoxy-6-(3-morpholinopropoxy)quinazolin-4-amine]	3.51 ± 0.05	16.37 ± 0.57	31.2 ± 2.36	51.77 ± 6.74	significant reduction	50	7.18 ± 1.22	< 20	27.6 ± 2.79	30.6 ± 1.93	56.1 ± 5.77	29.4 ± 5.53	4.6 ± 0.18	concentration-dependent decrease	concentration-dependent decrease	concentration-dependent decrease	concentration-dependent decrease	increased	increased	decrease in MMP9 protein expression	formation of H1299 cell colonies (H1299 cells [4]; 1 μM): significantly inhibit; formation of H1299 cell colonies (H1299 cells [4]; 4 μM): almost completely inhibited; migration closure rate (H1299 cells [5]; H1299, 2 μM): 53.26 ± 4.51%; migration closure rate (H1299 cells [5]; H1299, 4 μM): 40.04 ± 8.02%; migration closure rate (H1299 cells [5]; H1299, 8 μM): 17.90 ± 3.46%; melting point: 202 to 203 °C; IC50 (A549 cells): 4 ± 0.08 µM; nuclear morphology (DAPI staining) (H1299 cells [6]): typical apoptotic features
COc1cc2ncnc(Nc3cccc(-c4cn(Cc5ccccc5Br)nn4)c3)c2cc1OCCCN1CCOCC1 [Compound 4b, N-(3-(1-(2-Bromobenzyl)-1H-1,2,3-triazol-4-yl)phenyl)-7-methoxy-6-(3-morpholinopropoxy)quinazolin-4-amine]	1.56 ± 0.06	20.43 ± 1.72	43.2 ± 2.4	77.4 ± 3.97	significant reduction	50	9.09 ± 1	< 20	29.8 ± 1.27	39.1 ± 2.18	64.8 ± 1.84	20.2 ± 1.26	4.42 ± 0.24	concentration-dependent decrease	concentration-dependent decrease	concentration-dependent decrease	concentration-dependent decrease	increased	increased	decrease in MMP9 protein expression	formation of H1299 cell colonies (H1299 cells [4]; 1 μM): significantly inhibit; formation of H1299 cell colonies (H1299 cells [4]; 4 μM): almost completely inhibited; migration closure rate (H1299 cells [5]; H1299, 2 μM): 72.59 ± 2.12%; migration closure rate (H1299 cells [5]; H1299, 4 μM): 62.42 ± 5.50%; migration closure rate (H1299 cells [5]; H1299, 8 μM): 49.79 ± 2.22%; melting point: 165 to 166 °C; IC50 (A549 cells): 3.94 ± 0.01 µM; nuclear morphology (DAPI staining) (H1299 cells [6]): typical apoptotic features
